# Source: patent US10238738B2, “Methods of modulating immune system responses” (priority 2014, dated 2019)
# How the values were obtained:
# Format in all cases: cell-based, human
# NF-κB response to HBP = assay: HBP internalization assay: NF-κB luciferase in 293T cells pre-treated with inhibitors; details: 80 μM Dynasore or 10 μM cytochalasin D 1 hr prior to stimulation, FIG. 3b
# Procedure: (§1) 293T were maintained in DMEM supplemented with 10% FBS, 1% glutamax, and 1% penicillin streptomycin. Jurkat 1G5 cells contain a stably-integrated LTR-luciferase reporter gene (Aguilar-Cordova et al., 1994), and were maintained in RPMI supplemented with 10% FBS and 1% glutamax. THP-1 cells were maintained in RPMI supplemented with 10% FBS and 1% glutamax and differentiated to macrophages with 50 ng/ml PMA for 48 hr, followed by a 48 hr rest period prior to stimulation. To measure LTR-driven luciferase, 1G5 cells were lysed and luminescence determined using the Luciferase Assay kit (Promega) according to manufacturer's instructions. Results are expressed as fold change compared to untreated. 293T cells were transfected in 96 well plates with 90 ng ELAM firefly luciferase reporter plasmid (Chow et al., 1999) and 10 ng pRL-TK Renilla plasmid using TransiT LTI (Mirus). 18 hours later cells were treated for 6 hours and luciferase activity determined using the Dual-Glo Luciferase Assay System (Promega). Results are expressed as fold increase relative to transfected, mock treated cells following normalization to Renilla luciferase. […]
# THP-1 macrophages = assay: Infection of THP-1 macrophages with serum-opsonized E. coli, IL-6 production; details: 10 μg/ml cytochalasin D for 30 min; FIG. 6a
# Procedure: Neisseria strains were grown overnight on GC agar supplemented with IsovitaleX enrichment (BD Biosciences). E. coli and S. typhimurium were grown overnight on LB agar, S. pneumoniae was grown on Columbia blood agar containing 5% sheep blood, and H. influenzae, B. multivorans, L. monocytogenes, and S. aureus were grown on brain heart infusion (BHI) agar (BD Biosciences). Where culture supernatant was desired, overnight cultures were scraped into PBS, re-suspended in RPMI 1% Isovitalex at an OD600=0.2, grown for 6 hours and the spent medium filtered through a 0.22 μm filter. For heat-killed bacteria, overnight cultures were scraped into PBS and 1 OD600 unit was re-suspended in 100 μl PBS and heated to 65° C. for 1 hr, with the exception of B. multivorans which was heated to 85° C. Cell pellets were washed, re-suspended in 100 μl PBS, and 2 μl/well used as treatment. To generate lysates, cultures were treated as above and boiled for 15 minutes. […]
# Relative expression was calculated using the 2^−ΔΔCT method following normalization of target gene abundance to GAPDH. Quantitative measurements of cytokines were performed using ELISA kits form R&D Systems (KC, IL-23, IFN-β) or BD Biosciences (IL-1β, IL-8, IL-6, IL-12p70, TNF-α). Nuclear extracts were prepared from Jurkat T cells and NF-κB subunit binding was determined using the TransAM® Transcription Factor ELISA (Active Motif). […]
# NF-κB = NF-κB luciferase reporter assay in 293T cells
# Procedure: as §1, with “luciferase. Digitonin permeabilization assays were done as described previously (Girardin et al., 2003) with the following modifications: 1G5 cells were stimulated with purified HBP supernatants, or 10 μg/ml flagellin (Invivogen) for 20 minutes at 4° C. in the absence or presence of 2 μg/ml digitonin (Sigma).” for “luciferase.”
# 293T were maintained in DMEM supplemented with 10% FBS, 1% glutamax, and 1% penicillin streptomycin. […] To measure LTR-driven luciferase, 1G5 cells were lysed and luminescence determined using the Luciferase Assay kit (Promega) according to manufacturers instructions. Results are expressed as fold change compared to untreated. […] 18 hours later cells were treated for 6 hours and luciferase activity determined using the Dual-Glo Luciferase Assay System (Promega). Results are expressed as fold increase relative to transfected, mock treated cells following normalization to Renilla luciferase.
# [1] = tested on: HIV LTR-luciferase in Jurkat 1G5 cells; assay: LTR-driven luciferase in Jurkat 1G5 cells with reversible digitonin permeabilization; details: FIG. 3a
# Procedure: as §1
compound,measurement,setting,value
O=C(N/N=C/c1ccc(O)c(O)c1)c1cc2ccccc2cc1O [Dynasore],Effect of inhibitor on NF-κB response to HBP,NF-κB response to HBP,attenuated the NF-κB response to HBP
C=C1[C@@H](C)[C@H]2[C@H](Cc3ccccc3)NC(=O)[C@]23[C@H](OC(C)=O)/C=C/[C@@](C)(O)C(=O)[C@@H](C)C/C=C/[C@H]3[C@@H]1O [cytochalasin D],Effect of inhibitor on NF-κB response to HBP,NF-κB response to HBP,not
same,Effect of pre-treatment on the higher IL-6 production induced by HBP-synthesizing E. coli,THP-1 macrophages,abrogated the effect
"C[C@H](N)C(=O)N[C@H](CCC(=O)N[C@@H](CCC[C@@H](N)C(=O)O)C(=O)O)C(=O)O [m-TriDAP, reference compound]",NF-κB response of 293T cells to known Gram-negative PAMPs,NF-κB,unresponsive
flagellin,Luciferase activity after delivery into the cytosol,[1],remained constant
